Reference: ChEMBL document CHEMBL1128290, “Opioid receptor binding requirements for the delta-selective peptide deltorphin. I: Phe3 replacement with ring-substituted and heterocyclic amino acids” (J Med Chem, 1995)
Square brackets hold non-standard residues; d marks the D form. Peptide text beside a SMILES is read from it. Ala(4-thiazolyl) = N[C@@H](Cc1cscn1)C(=O)O; 2Pal = N[C@@H](Cc1ccccn1)C(=O)O; 3Pal = N[C@@H](Cc1cccnc1)C(=O)O; 2Thi = N[C@@H](Cc1cccs1)C(=O)O

Experiments:
[1] = molecular target: Mu-type opioid receptor (Cavia porcellus, UniProt P97266); assay: Inhibition of [3H]DAMGO binding to Opioid receptor mu 1 of guinea pig brain
[2] = molecular target: Kappa-type opioid receptor (Cavia porcellus, UniProt P41144); assay: Inhibition of [3H]- U 69593 from Opioid receptor kappa 1 of guinea pig brain
Chain of Kappa-type opioid receptor (P41144 whole entry): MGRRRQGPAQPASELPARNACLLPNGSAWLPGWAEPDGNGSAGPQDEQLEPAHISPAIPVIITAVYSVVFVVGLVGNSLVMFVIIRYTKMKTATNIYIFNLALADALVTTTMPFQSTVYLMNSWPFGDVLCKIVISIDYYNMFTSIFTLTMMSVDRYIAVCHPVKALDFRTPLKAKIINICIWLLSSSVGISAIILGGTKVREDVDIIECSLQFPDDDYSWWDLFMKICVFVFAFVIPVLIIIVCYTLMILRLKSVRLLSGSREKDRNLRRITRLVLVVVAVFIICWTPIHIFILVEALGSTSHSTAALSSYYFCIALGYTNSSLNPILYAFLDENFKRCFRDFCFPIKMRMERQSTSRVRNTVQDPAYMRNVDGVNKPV

Chain of Mu-type opioid receptor (P97266 whole entry): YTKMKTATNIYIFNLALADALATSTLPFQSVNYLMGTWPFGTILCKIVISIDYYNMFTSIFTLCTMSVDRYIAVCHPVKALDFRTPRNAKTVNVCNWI

| Compound | Ki [1] [µM] | Ki [2] [µM] |
| --- | --- | --- |
| Cc1ccc(C[C@H](NC(=O)[C@H](C)NC(=O)[C@@H](N)Cc2ccc(O)cc2)C(=O)N[C@@H](CC(=O)O)C(=O)N[C@H](C(=O)N[C@H](C(=O)NCC(N)=O)C(C)C)C(C)C)cc1 | > 10 | > 10 |
| CC(C)[C@H](NC(=O)[C@H](CC(=O)O)NC(=O)[C@H](Cc1c(F)c(F)c(F)c(F)c1F)NC(=O)[C@H](C)NC(=O)[C@@H](N)Cc1ccc(O)cc1)C(=O)N[C@H](C(=O)NCC(N)=O)C(C)C | > 10 | > 10 |
| CC(C)[C@H](NC(=O)[C@H](CC(=O)O)NC(=O)[C@H](Cc1ccc(F)cc1)NC(=O)[C@H](C)NC(=O)[C@@H](N)Cc1ccc(O)cc1)C(=O)N[C@H](C(=O)NCC(N)=O)C(C)C | 10 | > 10 |
| CC(C)[C@H](NC(=O)[C@H](CC(=O)O)NC(=O)[C@H](Cc1ccccn1)NC(=O)[C@H](C)NC(=O)[C@@H](N)Cc1ccc(O)cc1)C(=O)N[C@H](C(=O)NCC(N)=O)C(C)C (H-YA[2Pal]DVVG-NH2) | 2.93 | > 10 |
| CC(C)[C@H](NC(=O)[C@H](CC(=O)O)NC(=O)[C@H](Cc1cccs1)NC(=O)[C@H](C)NC(=O)[C@@H](N)Cc1ccc(O)cc1)C(=O)N[C@H](C(=O)NCC(N)=O)C(C)C (H-YA[2Thi]DVVG-NH2) | 0.419 | > 10 |
| CC(C)[C@H](NC(=O)[C@H](CC(=O)O)NC(=O)[C@H](Cc1cccnc1)NC(=O)[C@H](C)NC(=O)[C@@H](N)Cc1ccc(O)cc1)C(=O)N[C@H](C(=O)NCC(N)=O)C(C)C (H-YA[3Pal]DVVG-NH2) | 10 | > 10 |
| CC(C)[C@H](NC(=O)[C@H](CC(=O)O)NC(=O)[C@H](Cc1cscn1)NC(=O)[C@H](C)NC(=O)[C@@H](N)Cc1ccc(O)cc1)C(=O)N[C@H](C(=O)NCC(N)=O)C(C)C (H-YA[Ala(4-thiazolyl)]DVVG-NH2) | 2.8 | > 10 |
| CC(NC(=O)[C@@H](N)Cc1ccc(O)cc1)C(=O)N[C@@H](Cc1ccccc1)C(=O)N[C@@H](CC(=O)O)C(=O)N[C@H](C(=O)N[C@H](C(=O)NCC(N)=O)C(C)C)C(C)C (single isomer, unassigned) [DELTORPHIN C] | 0.677 | > 10 |
| CC(C)[C@H](NC(=O)[C@H](CC(=O)O)NC(=O)[C@H](Cc1cccc(F)c1)NC(=O)[C@H](C)NC(=O)[C@@H](N)Cc1ccc(O)cc1)C(=O)N[C@H](C(=O)NCC(N)=O)C(C)C (stereo in doubt; 2a) | 0.411 | > 10 |
| CC(C)[C@H](NC(=O)[C@H](CC(=O)O)NC(=O)[C@H](Cc1cccc(F)c1)NC(=O)[C@H](C)NC(=O)[C@@H](N)Cc1ccc(O)cc1)C(=O)N[C@H](C(=O)NCC(N)=O)C(C)C (stereo in doubt; 2b) | 3.48 | > 10 |
| Cc1c(C)c(C)c(C[C@H](NC(=O)[C@H](C)NC(=O)[C@@H](N)Cc2ccc(O)cc2)C(=O)N[C@@H](CC(=O)O)C(=O)N[C@H](C(=O)N[C@H](C(=O)NCC(N)=O)C(C)C)C(C)C)c(C)c1C (stereo in doubt; 5a) | > 10 | > 10 |
| Cc1c(C)c(C)c(C[C@H](NC(=O)[C@H](C)NC(=O)[C@@H](N)Cc2ccc(O)cc2)C(=O)N[C@@H](CC(=O)O)C(=O)N[C@H](C(=O)N[C@H](C(=O)NCC(N)=O)C(C)C)C(C)C)c(C)c1C (stereo in doubt; 5b) | > 10 | > 10 |
| H-YAHDVVG-NH2 | > 10 | > 10 |
